From US20260248780A1, “PHARMACEUTICAL COMPOSITIONS” (Birdie Biopharmaceuticals, Inc., priority 2017, published 2026)
≈ marks a conversion by molar mass, not a printed value.

Experiment: Kinetic solubility in water and bio-relevant media (SGF, FaSSIF, FeSSIF) at RT
Assay type: physicochemical
Conditions: for FC: Solid form change / S: Solubility / pH: Final pH of supernatant: RT
Procedure: After being centrifuged and separated using 0.45 μm Nylon filter, filtrates were collected for HPLC and pH test, and wet cakes for XRPD characterization. If clear solutions were obtained after 24 hours, accurate concentration and purity were measured for the solutions.

CCOCc1nc2c(N)nc3ccccc3c2n1CC(C)(C)O [Freebase Type A, 1-[4-amino-2-(ethoxymethyl)imidazo-[4,5-c]-quinolin-1-yl]-2-methylpropan-2-ol]
solubility kinetic (FaSSIF): ~2900 µg/mL (≈ 9.22 mM) | FC: Solid form change (FaSSIF, 1 hr): No | S: Solubility (FaSSIF, 1 hr): 2700 µg/mL | pH: Final pH of supernatant (FaSSIF, 1 hr): 7.0 | FC: Solid form change (FaSSIF, 2 hrs): No | S: Solubility (FaSSIF, 2 hrs): 2800 µg/mL | pH: Final pH of supernatant (FaSSIF, 2 hrs): 7.0 | FC: Solid form change (FaSSIF, 4 hrs): No | S: Solubility (FaSSIF, 4 hrs): 2800 µg/mL | pH: Final pH of supernatant (FaSSIF, 4 hrs): 7.1 | FC: Solid form change (FaSSIF, 24 hrs): No | S: Solubility (FaSSIF, 24 hrs): 2900 µg/mL | pH: Final pH of supernatant (FaSSIF, 24 hrs): 7.0 | pH: Final pH of supernatant (FeSSIF, 24 hrs): 5.4 | solubility kinetic (SGF and FeSSIF, simulated gastric fluid, SGF/FeSSIF): > 4900 µg/mL | S: Solubility (SGF, 1 hr): 2700 µg/mL | pH: Final pH of supernatant (SGF, 1 hr): 3.6 | S: Solubility (SGF, 2 hrs): 3500 µg/mL | pH: Final pH of supernatant (SGF, 2 hrs): 5.0 | S: Solubility (SGF, 4 hrs): 5000 µg/mL | pH: Final pH of supernatant (SGF, 4 hrs): 5.0 | S: Solubility (SGF, 24 hrs): 5000 µg/mL | pH: Final pH of supernatant (SGF, 24 hrs): 4.9 | FC: Solid form change (Water, 1 hr): No | S: Solubility (Water, 1 hr): 500 µg/mL | pH: Final pH of supernatant (Water, 1 hr): 8.4 | FC: Solid form change (Water, 2 hrs): No | S: Solubility (Water, 2 hrs): 500 µg/mL | pH: Final pH of supernatant (Water, 2 hrs): 8.6 | FC: Solid form change (Water, 4 hrs): No | S: Solubility (Water, 4 hrs): 500 µg/mL | pH: Final pH of supernatant (Water, 4 hrs): 8.1 | FC: Solid form change (Water, 24 hrs): No | S: Solubility (Water, 24 hrs): 500 µg/mL | pH: Final pH of supernatant (Water, 24 hrs): 8.1 | Kinetic Solubility at RT (water): ~0.5 (water) mg/mL
